Measured values published in US20130253069A1, “Use of DMSO for Destroying Adipocytes and Eliminating Cellulite and Adiposities” (priority 2010, published 2013).
Where two headings read alike, the source gives them in different places.

Experiments:
[1] = cited from earlier work
fat cells = settings: cited from earlier work
serum cholesterol = settings: cats, given with water along with a cholesterol-based diet; cited from earlier work
[2] = set-up: species or system human; settings: in vivo
From the text: (§1) 145 subjects were randomized in 3 groups and received 3 different treatments according to established method. Group A entered 29 female subjects having Dermal Paniculopathy (cellulite) stages 1 and 2, Group B entered 58 female subjects with Dermal Paniculopathy (cellulite) stages 3 and 4, and Group C entered 58 subjects, 35 female and 23 male, all having pronounced abdominal fat.
(§2) The three products were formulated as follows: group A consisted in an aqueous solution of DMSO at 20% and aerosol spray to 5%, group B consisted in an aqueous solution of DMSO at 50% and aerosol spray 5%, and group C consisted in an aqueous solution of DMSO at 90% and aerosol spray at 5%.
The aqueous solution was used in the massage applied before the delivery of spray. Each massage session lasted 45 minutes in average. […]
Adverse reactions commonly reported in a period of 2 hours right after the application were: nausea (27 subjects or 19%), headache (15 subjects or 11%), feeling of burn in application site (11 subjects or 8%), itch and redness in application site (14 subjects or 10%), hypotension (7 subjects or 5%), odor and taste similar to garlic or corn (136 subjects or 98%), dry mouth (32 subjects or 23%), increased diuresis (98 subjects or 70%), strong urine color and odor (68 subjects or 49%). These reactions were evaluated as light and transitory.

[3] = tested on: cellulite and adiposities; experiment: Study of efficacy of topically delivered DMSO for eliminating cellulite and adiposities; assay type: in vivo, human
From the text: This study was exclusively designed to determine the efficacy and safety of DMSO delivered in several manners and in different concentrations for eliminating cellulite and adiposities.
This is a multicentric, prospective, longitudinal study, where clinical and instrumental parameters are used to detect results regarding different formulations and application forms performed. It is not possible to perform a double-blind study with placebo due to the strong odor of DMSO present in formulations, easy to identify.
A group of 145 subjects, with ages ranging from 18 to 55 years (average 36.5 y.o.), having cellulite for at least 2 years, were recruited from April, 2008 until July, 2008.
Inclusion criteria were: presence of cellulite (stages 1, 2, 3, and 4) in subjects of groups A and B; accentuated abdominal fat in the subjects of the group C; age ranging from 18 to 55 years old and interest in entering the study.
Exclusion criteria were: after liposculpture, other treatments anti-cellulite ongoing or 30 days before entering the study, pregnant and nursing women, cancer, people with hormonal alterations, endocrinological disorders, and people under hormonal or endocrinal treatment.
as §1, §2
The aqueous solution was used in the massage applied before the delivery of spray. Each massage session lasted 45 minutes in average.
After massage, the spray was applied at 30 cm (11.80 in) of distance for approximately 5 seconds in each site.
After the procedure as above, a drainage massage was applied for 20 minutes.
In total, each session last 1 hour and 30 minutes in average.
Two sessions were applied per week during 5 weeks.
All subjects were analyzed at the end of each session, and especially after the 10 sessions.
Evaluation methods were: digital photographs (before and after), clinical observation, measurement of thigh circumference, pinching test (for pain), measurement of fat with plicometer/adipometer, measurement of abdominal circumference, measurement of hips and waist circumference, and questionnaire with questions about swelling, pain and heaviness in the legs, cellulite appearance, weight, general efficacy of the product, tolerability, satisfaction with the treatment, sensation of wellbeing, increased diuresis, urine color, among others.

[4] = cited from earlier work; remark: listed apart in the source
[5] = cited from earlier work; remark: listed apart in the source
[6] = tested on: cyclic AMP phosphodiesterase; settings: present in fat cells; high concentrations; cited from earlier work
adipocytes (fat cells) = experiment: Adipocytes destroyed per application of DMSO; assay type: in vivo
[7] = humans, after DMSO administration
[8] = humans, dermal delivery of a DMSO solution at 70%
[9] = humans, plasma, dermal delivery of a DMSO solution at 70%
[10] = % of subjects in this category after 10 topical sessions
[11] = % of subjects in this category after 10 topical sessions, regular diet and physical activities kept
[12] = reports among subjects with accentuated venous insufficiency and varicose veins (30% of 139)
[13] = topical DMSO 80%, gram/kg per day, 60 subjects, 14 days

CS(C)(=O)=O [DMSO2, Dimethyl sulphona]
time DMSO2 persisted in plasma [1, 7]: approximately 400 hours
time at which DMSO2 appeared in plasma [1, 7]: 48 h
Excretion of DMSO2 ([1]; humans, dermal administration of DMSO): 21-23%
duration of urinary excretion of DMSO2 [1, 8]: 456 h
plasmatic levels of DMSO2 after 312 hours [1, 8]: low but still detectable
time at which urinary excretion of DMSO2 became more significant [1, 8]: approximately 8 hours
time of maximum plasmatic levels of DMSO2 [1, 8]: 60 to 70 h
total average amount of DMSO2 excreted in urine [1, 8]: 17.8 % dose of DMSO
Excretion of DMSO2 ([1]; humans, oral administration of DMSO): 5-10%
accumulation of cyclic AMP due to norepinephrine (fat cells): did not cause any changes

CSC [dimethyl sulfide]
accumulation of cyclic AMP due to norepinephrine (fat cells): did not cause any changes

C[S+](C)[O-] [DMSO, Dimethyl Sulfoxide]
prevention of expected increase of serum cholesterol (serum cholesterol): 50%
dose excreted in the air as dimethyl sulfide ([1]; estimate of Kolb et al. (1965)): approximately 3 % of the dose
dose recovered in urine ([1]; humans, 1 g/kg dermally, fluid form and gel form, 10 subjects each): less than 10 % of the dose
Urinary excretion of DMSO ([1]; humans, dermal administration): 30-68 % of the dose
Total urinary excretion of DMSO (average) [1, 8]: 13 % dose
dose accounted for by urinary excretion of DMSO and DMSO2 (average) [1, 8]: 30.8 % dose
duration of urinary excretion of DMSO [1, 8]: 48 h
time of maximum plasmatic levels of DMSO [1, 8]: 4 to 8 h
time of peak of plasmatic levels ([1]; humans, dermally administered): 4 to 8 h
Urinary excretion of DMSO ([1]; humans, oral administration): approximately 13 % of the dose
time to plasma peak ([1]; humans, orally administered): ≤ 4 h
half-life [1, 9]: 11 to 14 h
time after which DMSO could not be detected any longer [1, 9]: 36 to 48 h
time after which serum levels of DMSO were undetectable ([1]; humans): 120 h
share of excretion via air ([1]; in vivo): less than 3%
Discontinuation of treatment due to adverse reactions [2]: No patient discontinued the treatment due to adverse reactions
General satisfaction after all 10 sessions: Bad ([3]; % of subjects in this category): 0%
General satisfaction after all 10 sessions: Excellent ([3]; % of subjects in this category): 72%
General satisfaction after all 10 sessions: Good ([3]; % of subjects in this category): 6%
General satisfaction after all 10 sessions: Great ([3]; % of subjects in this category): 22%
General satisfaction after all 10 sessions: Regular ([3]; % of subjects in this category): 0%
Abdominal circumference reduction: 3.1-5 cm [3, 10]: 39%
Abdominal circumference reduction: 5.1 cm and more [3, 10]: 29%
Abdominal circumference reduction: Up to 3 cm [3, 10]: 32%
Diuresis improvement: Bad [3, 10]: 0%
Diuresis improvement: Excellent [3, 10]: 28%
Diuresis improvement: Good [3, 10]: 25%
Diuresis improvement: Great [3, 10]: 39%
Diuresis improvement: Regular [3, 10]: 8%
General efficacy: Bad [3, 10]: 0%
General efficacy: Excellent [3, 10]: 74%
General efficacy: Good [3, 10]: 9%
General efficacy: Great [3, 10]: 17%
General efficacy: Regular [3, 10]: 0%
General feeling of improvement: Bad [3, 10]: 0%
General feeling of improvement: Excellent [3, 10]: 78%
General feeling of improvement: Good [3, 10]: 10%
General feeling of improvement: Great [3, 10]: 12%
General feeling of improvement: Regular [3, 10]: 0%
Hip circumference reduction: 2.6-4.5 cm [3, 10]: 43%
Hip circumference reduction: 4.5 cm and more [3, 10]: 26%
Hip circumference reduction: Up to 2.5 cm [3, 10]: 31%
Improvement from orange peel skin appearance: Bad [3, 10]: 0%
Improvement from orange peel skin appearance: Excellent [3, 10]: 76%
Improvement from orange peel skin appearance: Good [3, 10]: 11%
Improvement from orange peel skin appearance: Great [3, 10]: 13%
Improvement from orange peel skin appearance: Regular [3, 10]: 0%
Mood improvement: Bad [3, 10]: 0%
Mood improvement: Excellent [3, 10]: 26%
Mood improvement: Good [3, 10]: 33%
Mood improvement: Great [3, 10]: 41%
Mood improvement: Regular [3, 10]: 0%
Reduced pain in cellulite sites: Bad [3, 10]: 0%
Reduced pain in cellulite sites: Excellent [3, 10]: 21%
Reduced pain in cellulite sites: Good [3, 10]: 39%
Reduced pain in cellulite sites: Great [3, 10]: 27%
Reduced pain in cellulite sites: Regular [3, 10]: 13%
Thigh circumference reduction: 2.1-4 cm [3, 10]: 48%
Thigh circumference reduction: 4.1 cm and more [3, 10]: 24%
Thigh circumference reduction: Up to 2 cm [3, 10]: 28%
well-being: Bad [3, 10]: 5%
well-being: Excellent [3, 10]: 20%
well-being: Good [3, 10]: 28%
well-being: Great [3, 10]: 44%
well-being: Regular [3, 10]: 3%
Weight loss: 2.1-3 kg [3, 11]: 44%
Weight loss: 3 kg and more [3, 11]: 25%
Weight loss: Up to 2 kg [3, 11]: 31%
Decreased and whitened macrovaricose veins [3, 12]: 39%
Decreased pain in legs, arms and hands [3, 12]: 62%
Decreased swelling and heaviness in the legs [3, 12]: 73%
Decreased tingling legs and arms [3, 12]: 55%
time at which increase of cyclic AMP due to DMSO was detected (fat cells; after addition of the lipolytic agents, 1.10 M DMSO): 40 s
increase of lipolysis due to glucagon, norepinephrine or theophylline (fat cells): potentialized
lipolysis (fat cells): increased
oxidation of glucose stimulated by insulin (fat cells): decreased
eosinophilia ([4]; DMSO at 80% gram/kilogram per day topically for 14 days and 90 days): can cause eosinophilia
ocular adverse effect ([4]; subjects receiving topical solution): No ocular adverse effect was observed
dizziness [4, 13]: 18%
dry nasal passages, dry or painful throat and cough [4, 13]: Less than 5%
headache [4, 13]: 42%
sedation [4, 13]: 52%
duration of odor similar to garlic in the body ([4]; topical application): up to 72 hours
teratogenic effects ([5]; animals exposed): Teratogenic effects were observed
ocular findings in animals ([5]; studies in animals): changes to lenses
activity of cyclic AMP phosphodiesterase, soluble and particulate [6]: inhibited
amount of adipocytes destroyed per session/application (adipocytes (fat cells)): 50,000-500,000 cells
